Assay results published in publication PMC11449996 (Clinical Pharmacokinetics, 2024).
In brackets after ≈: the same amount, converted by molar mass. Read-outs that look alike come from different tables or passages of the source.

Experiments:
hepatic cytochromes = conditions: ref 13; cited from earlier work
MRSA = conditions: bloodstream infection isolates, 72 US and European medical centers; cited from earlier work
[1] = cited from earlier work
[2] = cited from earlier work; remark: listed apart in the source
[3] = system: Staphylococcus epidermidis; conditions: bloodstream infection isolates, 72 US and European medical centers; cited from earlier work
[4] = Population pharmacokinetic model of dalbavancin; assay type: in vivo, patients
staphylococci = conditions: cited from earlier work
[5] = system: C-reactive protein (C-RP) production; assay type: in vivo, patients
[6] = median of 1000 non-parametric bootstrap iterations
[7] = population estimate, final PK/PD model

In the case of `CN[C@H]1C(=O)N[C@@H]2Cc3ccc(cc3)Oc3cc4cc(c3O[C@@H]3O[C@H](C(=O)O)[C@@H](O)[C@H](O)[C@H]3NC(=O)CCCCCCCCC(C)C)Oc3ccc(cc3Cl)[C@@H](O)[C@@H]3NC(=O)[C@H](NC(=O)[C@@H]4NC(=O)[C@@H](NC2=O)c2cc(cc(O)c2Cl)Oc2cc1ccc2O)c1ccc(O)c(c1)-c1c(O[C@H]2O[C@H](CO)[C@@H](O)[C@H](O)[C@@H]2O)cc(O)cc1[C@@H](C(=O)NCCCN(C)C)NC3=O` [dalbavancin, Dalbavancin], the “drug–drug interactions” value (hepatic cytochromes) is given as “no clinically relevant drug–drug interactions”, the “substrate of the hepatic cytochromes” value (hepatic cytochromes) is given as “not a substrate of the hepatic cytochromes” and the MIC90 (MRSA) is given as 0.03 µg/mL (≈ 0.0165 µM). The plasma protein binding ([1]; ref 13) was 93–98%, the plasma protein binding ([1]; ref 15) was 93% and the terminal half-life ([2]; intravenous route) was 147 to 258 h. For the same compound, the “CL, population estimates of previous studies” value ([2]; ref 5, 25, 26) was 0.043 to 0.057 L/h, the “V, population estimates of previous studies” value ([2]; ref 5, 25, 26) was 15 to 15.9 L and the “administered dose excreted in urine” value ([2]; ref 13) was “up to 42%”. The MIC90 [3] was 0.06 µg/mL (≈ 0.033 µM), the clearance ([4]; human, plasma, intravenous, 1500 mg) was 0.75 mL/min and the “CL, non-renal clearance of dalbavancin, bootstrap median” value [4, 6] was 0.028 L/h. For the same compound, the “Q, bootstrap median” value [4, 6] was 0.04 L/h, the “V1, bootstrap median” value [4, 6] was 5.98 L and the “V2, bootstrap median” value [4, 6] was 9.08 L. For the same compound, the “β_eGFR, bootstrap median” value [4, 6] was 0.005, the “V1, volume of distribution of the central compartment” value [4, 7] was 5.93 L and the “V2, volume of distribution of the peripheral compartment” value [4, 7] was 9.55 L. For the same compound, the “β_eGFR, coefficient of eGFR when dalbavancin CL was scaled to eGFR” value ([4]; population estimate, final PK/PD model, eGFR by CKD-EPI) was 0.0042, the “MIC90, value at which 90% of the wild-type strains are inhibited” value (staphylococci) was 0.0625 µg/mL and the “free IC50 on C-RP production” value ([5]; from total IC50 […] mg/L considering plasma protein binding of 93%) was 0.05 µg/mL. For the same compound, the “IC50, bootstrap median” value [5, 6] was 0.58 µg/mL (≈ 0.319 µM), the “kout, bootstrap median” value [5, 6] was 0.0038 h^–1 and the “kout, elimination rate of C-RP concentration in plasma” value ([5]; population estimate, final PK/PD model, 211 C-RP plasma concentrations) was 0.0037 h^–1.
